Values quoted from earlier work as cited in PMC6311893, “Computational prediction of plasma protein binding of cyclic peptides from small molecule experimental data using sparse modeling techniques” (BMC Bioinformatics, 2018).
Non-standard residues stand in square brackets, D forms with d. Residues, ends and D or L forms follow the SMILES beside them. dPhe(4-Cl) = N[C@H](Cc1ccc(Cl)cc1)C(=O)O; d2Nal = N[C@H](Cc1ccc2ccccc2c1)C(=O)O; dCit = NC(=O)NCCC[C@@H](N)C(=O)O; d3Pal = N[C@H](Cc1cccnc1)C(=O)O

Tested on: plasma protein
Details: cited from earlier work

Molecule | PPB (fb)
Nc1ccc(C(=O)O)c(O)c1 [4-aminosalicylic acid] | 0.62

Same assay, conditions: fraction bound to plasma protein; small molecule dataset, sheet 1-SM (Set Dte = test, Dtr = training); ref Ingle et al.; cited from earlier work

Molecule | PPB (fb)
O=C1CN(/N=C/c2ccc(-c3ccc([N+](=O)[O-])cc3)o2)C(O)=N1 [dantrolene] | 0.89
C[C@H](N[C@@H](CCc1ccccc1)C(=O)O)C(=O)N1CCC[C@H]1C(=O)O [Enalaprilat] | 0.46
O=C1CCC(Cc2ccc(O)c(O)c2)O1 (stereo not drawn) | 0.35
C=CCOc1ccccc1OCC(O)CNC(C)C (stereo not drawn) [oxprenolol] | 0.77
CO[C@H]1O[C@@H]2O[C@@]3(C)CC[C@H]4[C@H](C)CC[C@@H]([C@H]1C)[C@@]24OO3 [artemether] | 0.5
CCN1CCN(c2cc3c(cc2F)c(=O)c(C(=O)O)cn3-c2ccc(OC)cc2)CC1 [5cb (p-OCH3__N-C2H5)] | 0.51
C[C@H](N[C@@H](CCc1ccccc1)C(=O)O)C(=O)N1Cc2ccccc2C[C@H]1C(=O)O [Quinaprilat] | 0.68
CC1(C)SC2C(NC(=O)C(Cl)c3ccc(Cl)c(Cl)c3)C(=O)N2C1C(=O)O (stereo not drawn) [penicillin25] | 0.97
Nc1ncn([C@H]2C[C@H](O)[C@@H](CO)O2)c(=O)n1 [Decitabine] | 0
CC(C)NCC(O)COc1ccc(COCCOC(C)C)cc1 (stereo not drawn) [Bisoprolol] | 0.32
CC(CC1c2ccccc2CCc2ccccc21)CN(C)C (stereo not drawn) [butriptyline] | 0.95
O=C(O)C1=C(CSc2nnnn2CS(=O)(=O)O)CS[C@@H]2[C@H](NC(=O)[C@H](O)c3ccccc3)C(=O)N12 [cefonicid] | 0.98
C[C@@H]1[C@H](O)[C@@H](C)/C=C/C=C/C=C/C=C/C=C/C=C/C=C/[C@H](O[C@@H]2O[C@H](C)[C@@H](O)[C@H](N)[C@@H]2O)C[C@@H]2O[C@](O)(C[C@@H](O)C[C@@H](O)[C@H](O)CC[C@@H](O)C[C@@H](O)CC(=O)O[C@H]1C)C[C@H](O)[C@H]2C(=O)O [amphotericin-B] | 0.94
Clc1ccccc1C(c1ccccc1)(c1ccccc1)n1ccnc1 [clotrimazole] | 0.5
CCOc1ccc2ccccc2c1C(=O)N[C@@H]1C(=O)N2[C@@H]1SC(C)(C)[C@@H]2C(=O)O [Nafcillin] | 0.88
Cc1nnc(SCC2=C(C(=O)O)N3C(=O)[C@@H](NC(=O)Cn4cnnn4)[C@H]3SC2)s1 [Cefazolin] | 0.83

Same assay, conditions: fraction bound to plasma protein; small molecule dataset, sheet 1-SM, Set Dtr; ref Ingle et al.; cited from earlier work

Molecule | PPB (fb)
CC(Oc1ccccc1)C(=O)N[C@@H]1C(=O)N2[C@@H]1SC(C)(C)[C@@H]2C(=O)O (stereo partly drawn) [Phenethicillin] | 0.75
Nc1nc(Cl)nc2c1ncn2[C@H]1C[C@H](O)[C@@H](CO)O1 [Cladribine] | 0.2
O=C(O)P(=O)(O)O [Foscarnet] | 0.15
COc1ccccc1Oc1c(NS(=O)(=O)c2ccc(C(C)(C)C)cc2)nc(-c2ncccn2)nc1OCCO [Bosentan] | 0.97
C#C[C@]1(O)C=C[C@H]2[C@@H]3CCC4=CC(=O)CC[C@@H]4[C@H]3CC[C@@]21CC [Gestodene] | 0.98
Cc1ccc(C(=O)c2ccc(CC(=O)O)n2C)cc1 [tolmetin] | 0.99
CSc1ccc(C(=O)c2[nH]c(=O)[nH]c2C)cc1 [Fenoximone] | 0.74
C[C@H](N[C@@H](CCc1ccccc1)C(=O)O)C(=O)N1[C@H](C(=O)O)C[C@H]2CCCC[C@@H]21 [trandolaprilat] | 0.94
CN/C(=N/CCSCc1nc[nH]c1C)NC#N [Cimetidine] | 0.2
O=c1[nH]c2ccccc2n1CCCN1CCC(n2c(=O)[nH]c3cc(Cl)ccc32)CC1 [Domperidone] | 0.92
NCCCCCC(=O)O [Aminohexanoic acid] | 0.08
Nc1nc(NC2CC2)c2ncn([C@H]3C=C[C@@H](CO)C3)c2n1 [Abacavir] | 0.5
C[C@@H](O[C@H]1OCCN(Cc2n[nH]c(=O)[nH]2)[C@H]1c1ccc(F)cc1)c1cc(C(F)(F)F)cc(C(F)(F)F)c1 [Aprepitant] | 0.95
OC(Cn1cncn1)(Cn1cncn1)c1ccc(F)cc1F [Fluconazole] | 0.16
CN1CCN(CCCCN2C(=O)CN(/N=C/c3ccc(-c4ccc(Cl)cc4)o3)C2=O)CC1 [Azimilide] | 0.94
C[C@H]1[C@H](OC(=O)CCC(=O)O)O[C@@H]2O[C@@]3(C)CC[C@H]4[C@H](C)CC[C@@H]1[C@@]24OO3 [Artesunate] | 0.75
COC(=O)CCc1ccc(OCC(O)CNC(C)C)cc1 (stereo not drawn) [Esmolol] | 0.48
COc1ccc2c(C(=S)N(C)CC(=O)O)cccc2c1C(F)(F)F [tolrestat] | 0.99
CCCC(=O)Nc1ccc(OCC(O)CNC(C)C)c(C(C)=O)c1 (stereo not drawn) [Acebutolol] | 0.24
CCOC(=O)Nc1ccc(NCc2ccc(F)cc2)nc1N [Flupirtine] | 0.82
COc1ccc(-c2nc3ccc(C4=NNC(=O)CC4C)cc3[nH]2)cc1 (stereo not drawn) [Pimobendan] | 0.98

Same assay, conditions: fraction bound to plasma protein; small molecule dataset, sheet 1-SM; ref Ingle et al.; cited from earlier work

Molecule | PPB (fb)
Cc1oncc1C(=O)Nc1ccc(C(F)(F)F)cc1 [leflunomide] | 0.99
CN1CCN2c3ccccc3Cc3ccccc3C2C1 (stereo not drawn) [mianserin] | 0.93
COC(CC(=O)NC1C(=O)N2C1SC(C)(C)C2C(=O)O)c1ccc(Br)s1 (stereo not drawn) [penicillin74] | 0.9
O=C(c1ccc(OCCN2CCCCC2)cc1)c1c(-c2ccc(O)cc2)sc2cc(O)ccc12 [raloxifene] | 0.97
CC(=O)C1CCC2C3CC=C4CC(O)CCC4(C)C3CCC12C (stereo not drawn) [Pregnenolone] | 0.8
CCS(=O)(=O)CCn1c([N+](=O)[O-])cnc1C [Tinidazole] | 0.15
CCOc1c(C)nc2ccccc2c1C(=O)NC1C(=O)N2C1SC(C)(C)C2C(=O)O (stereo not drawn) [penicillin79] | 0.74
CO[C@@H]1[C@@H](OC(N)=O)[C@@H](O)[C@H](Oc2ccc3c(O)c(NC(=O)c4ccc(O)c(CC=C(C)C)c4)c(=O)oc3c2C)OC1(C)C [Novobiocin] | 0.9
CC(=O)Nc1ccc(OCC(O)CNC(C)C)cc1 (stereo not drawn) [practolol] | 0.3
CC(C(=O)NC1C(=O)N2C1SC(C)(C)C2C(=O)O)c1ccccc1 (stereo not drawn) [penicillin19] | 0.68
NCC1OC(OC2C(CO)OC(OC3C(O)C(N)CC(N)C3OC3OC(CN)C(O)C(O)C3N)C2O)C(N)C(O)C1O (stereo not drawn) [neomycin] | 0.2
CN(c1nccc(=O)[nH]1)C1CCN(c2nc3ccccc3n2Cc2ccc(F)cc2)CC1 [mizolastine] | 0.98
CC/C=C/C/C=C/C/C=C/C/C=C/C=C/C(O)CCCC(=O)O (stereo not drawn) [hepe] | 0.99
CCC1(C)OC(=O)N(C)C1=O (stereo not drawn) [paramethadione] | 0
CN(C/C=C/C#CC(C)(C)C)Cc1cccc2ccccc12 [terbinafine] | 0.99
O=C1C(CC[S+]([O-])c2ccccc2)C(=O)N(c2ccccc2)N1c1ccccc1 (stereo not drawn) [Sulfinpyrazone] | 0.98
CN1CCC(=C2c3ccccc3CC(=O)c3sccc32)CC1 [ketotifen] | 0.8
Cc1cccc(C)c1NC(=O)C(C)N (stereo not drawn) [Tocainide] | 0.13
CCOC(=O)Nc1ccc2c(c1)N(C(=O)CCN1CCOCC1)c1ccccc1S2 [moracizine] | 0.88
OCc1cc(C(O)CNCCCCCCOCCCCc2ccccc2)ccc1O (stereo not drawn) [salmeterol] | 0.96
COc1ccc2c(c1)N(C[C@H](C)CN(C)C)c1ccccc1S2 [methotrimeprazine] | 0.98
O=C1[C@H](CC[C@H](O)c2ccc(F)cc2)[C@@H](c2ccc(O)cc2)N1c1ccc(F)cc1 [Ezetimibe] | 0.9
CC/C(=C(\c1ccccc1)c1ccc(OCCN(C)C)cc1)c1ccccc1 [tamoxifen] | 0.99
CN1CCOC(c2ccccc2)c2ccccc2C1 (stereo not drawn) [nefopam] | 0.73
CCn1cc(C(=O)O)c(=O)c2cc(F)c(N3CCNCC3)cc21 [norfloxacin] | 0.15
COc1cc(Cc2cnc(N)nc2N)c2c(c1OC)OC(C1CC1)C=C2 (stereo not drawn) [iclaprim] | 0.93
CC(Oc1ccc2ccccc2c1)C(=O)NC1C(=O)N2C1SC(C)(C)C2C(=O)O (stereo not drawn) [penicillin69] | 0.95
O=C1c2ccccc2C(=O)C1c1ccccc1 [phenindione] | 0.97

Same assay, conditions: human, plasma; cited from earlier work

Molecule | PPB (fb)
CC(=O)N[C@H](Cc1ccc2ccccc2c1)C(=O)N[C@H](Cc1ccc(Cl)cc1)C(=O)N[C@H](Cc1cccnc1)C(=O)N[C@@H](CO)C(=O)N[C@@H](Cc1ccc(O)cc1)C(=O)N[C@H](CCCNC(N)=O)C(=O)N[C@@H](CC(C)C)C(=O)N[C@@H](CCCNC(=N)N)C(=O)N1CCC[C@H]1C(=O)N[C@H](C)C(N)=O [Cetrorelix] (Ac-[d2Nal][dPhe(4-Cl)][d3Pal]SY[dCit]LRP[dA]-NH2) | 0.86

Same assay, conditions: plasma; cited from earlier work

Molecule | PPB (fb)
C[C@H]1O[C@@H](O[C@H]2CC[C@@]3(C)[C@H](CC[C@@H]4[C@@H]3C[C@@H](O)[C@]3(C)[C@@H](C5=CC(=O)OC5)CC[C@]43O)C2)C[C@H](O)[C@@H]1O[C@H]1C[C@H](O)[C@H](O[C@H]2C[C@H](O)[C@H](O[C@@H]3O[C@H](CO)[C@@H](O)[C@H](O)[C@H]3O)[C@@H](C)O2)[C@@H](C)O1 [deslanoside] | 0.2
CN1C(=O)CC(=O)N(c2ccccc2)c2cc(Cl)ccc21 [clobazam] | 0.92
mepacrine | 0.9
COc1ccc(CC(C)NCC(O)c2ccc(O)c(NC=O)c2)cc1 (stereo not drawn) [formoterol] | 0.62
CCC1(c2cccc(O)c2)CCCCN(C)C1 (stereo not drawn) [Meptazinol] | 0.27
CCC1(c2ccccc2)C(=O)NC(=O)N(C)C1=O (stereo not drawn) [methylphenobarbital] | 0.5
CN1CCC[C@H]1c1cccnc1 [Nicotine] | 0.05
O=C([O-])[O-].[Li+].[Li+] [Lithium Carbonate] | 0
COc1ccc2c3c1O[C@H]1[C@@H](O)C=C[C@H]4[C@@H](C2)N(C)CC[C@@]341 [Codeine] | 0.21
CN1C(=O)CCS(=O)(=O)C1c1ccc(Cl)cc1 (stereo not drawn) [chlormezanone] | 0.5
CC(=O)OC1C(O)CC(OC2C(O)CC(OC3C(O)CC(OC4CCC5(C)C(CCC6C5CC(O)C5(C)C(C7=CC(=O)OC7)CCC65O)C4)OC3C)OC2C)OC1C (stereo not drawn) [beta-acetyldigoxin] | 0.15
